Data: US8211909B2, “Treatment of antibiotic-resistant bacteria infection” (TaiGen Biotechnology Co., Ltd., priority 2008, dated 2012)
≈ marks a conversion by molar mass, not a printed value. Like-named read-outs stand apart in the source and are kept apart here.

What was measured:
S. pneumoniae = assay: CANWARD 2007 gram-positive cocci, CLSI broth microdilution; format: cell-based, Streptococcus pneumoniae; set-up: MIC50 / MIC90: unit not given here
Procedure: (§1) From January-December 2007, 12 hospitals across Canada submitted isolates from patients attending hospital clinics, emergency rooms, medical and surgical wards, and intensive care units. 7881 isolates (CANWARD 2007) were collected including 3473 gram-positive cocci. Susceptibility testing for Compound 1 and Levofloxacin was performed using the Clinical and Laboratory Standards Institute broth microdilution.

[1] = tested on: Vancomycin-resistant E. faecalis; assay: MIC by agar dilution (CLSI-M100-S18), Taiwan Enterococci isolates; format: cell-based, Enterococcus faecalis
Procedure: (§2) Compound 1 was tested for its inhibitory effect against multidrug-resistant Methicillin-resistant Staphylococcus aureus and Enterococci obtained by 10 medical centers in all regions of Taiwan. MICs were determined using the agar dilution methods recommended by the Clinical and Laboratory Standards Institute (CLSI-M100-S18).

H. pylori isolates = assay: MIC by agar dilution against 200 H. pylori isolates (Taiwan); format: cell-based, Helicobacter pylori
Procedure: MICs were determined using the agar dilution methods recommended by the Clinical and Laboratory Standards Institute (CLSI-M100-S18).

[2] = tested on: multidrug-resistant Methicillin-resistant Staphylococcus aureus; assay: MIC by agar dilution (CLSI-M100-S18), Taiwan multidrug-resistant MRSA isolates; format: cell-based; conditions: for MIC50 / MIC90: Staphylococcus aureus, MRSA
Procedure: as §2

[3] = tested on: S. aureus (MSSA, CA-MRSA, HA-MRSA, VISA, VRSA); assay: CANWARD 2007 / NARSA gram-positive cocci, CLSI broth microdilution; format: cell-based, Staphylococcus aureus; set-up: MIC50 / MIC90: unit not given here
Procedure: as §1

[4] = Pharmacokinetic assays of plasma of subjects taking Compound 1; conditions: for Cmax: day 10, plasma; for Free AUC0-24 / Free Cmax: corrected for plasma protein binding
Procedure: 5 mL of each sample was transferred to a heparin sodium tube and immediately placed on ice. Plasma was separated by centrifugation at approximately 4° C. and transferred to appropriately labeled polypropylene specimen containers (two tubes with 1-1.5 mL plasma/tube) and frozen at approximately −70° C. before use.
Prior to analysis of the blood samples, pharmacokinetic assays were validated.
The pharmacokinetic assays of the blood samples were performed by Charles River Laboratories (Worcester, Mass.).

[5] = tested on: Staphylococcus aureus strains (MRSA, hVISA, VISA, VRSA, quinolone-resistant MRSA); assay: MIC by agar dilution against Staphylococcal strains (MRSA, hVISA, VISA, VRSA, quinolone-resistant MRSA); format: cell-based; conditions: for MIC50 / MIC90 / MIC: Staphylococcus aureus
Procedure: Compound 1 was tested for its inhibitory effect against 26 Methicillin-resistant Staphylococcus aureus (MRSA) strains, 2 hetero-Vancomycin intermediate Staphylococcus aureus (hVISA) strains, 24 Vancomycin-intermediate Staphylococcus aureus (VISA) strains, 5 Vancomycin-resistant Staphylococcus aureus (VRSA) strains, and 31 quinolone-resistant Vancomycin-susceptibale MRSA strains with defined mutations in QRDR. These mutations were determined by sequencing analysis of the QRDR (gyrA, gyrB, grlA, and grlB). Efflux testing was performed by the reserpine method (Brenwald, et al., Antimicrob. Agents Chemother. 1998, 42: 2032-2035).

E. faecalis = assay: CANWARD 2007 gram-positive cocci, CLSI broth microdilution; format: cell-based; set-up: unit not given beside the values; conditions: E. faecalis (81)
Procedure: as §1

[6] = tested on: Staphylococcus epidermidis (MSSE, MRSE); assay: as above; format: cell-based; set-up: MIC50 / MIC90: unit not given beside the values
Procedure: as §1

[7] = Enterococcus faecalis, Vancomycin-resistant E. faecalis (n = 34)
[8] = Helicobacter pylori, 200 isolates of H. pylori
[9] = Ciprofloxacin-resistant MRSA (n = 20)
[10] = Ciprofloxacin-susceptible MRSA (n = 20)
[11] = Daptomycin-nonsusceptible MRSA (n = 5)
[12] = Vancomycin-intermediate MRSA (n = 50)
[13] = 500 mg q24 p.o., MIC90 0.125 μg/mL
[14] = 500 mg q24 p.o., MIC90 0.5 μg/mL
[15] = 500 mg q24 p.o., MIC90 0.75 μg/mL
[16] = 750 mg q24 p.o., MIC90 0.125 μg/mL
[17] = 750 mg q24 p.o., MIC90 0.5 μg/mL
[18] = 750 mg q24 p.o., MIC90 0.75 μg/mL
[19] = 1000 mg q24 p.o., MIC90 0.125 μg/mL
[20] = 1000 mg q24 p.o., MIC90 0.5 μg/mL
[21] = 1000 mg q24 p.o., MIC90 0.75 μg/mL
[22] = 1000 mg q24 p.o., MIC90 1 μg/mL
[23] = hVISA(2) + VISA (24) + VRSA (5)

COc1c(N2C[C@@H](C)C[C@H](N)C2)ccc2c(=O)c(C(=O)O)cn(C3CC3)c12 [Compound 1, (3S,5S)-7-[3-amino-5-methyl-piperidinyl]-1-cyclopropyl-1,4-dihydro-8-methoxy-4-oxo-3-quinolinecarboxylic acid]
activity compared with Levofloxacin (in words) (S. pneumoniae; PenI-SPN, PenR-SPN, CipR-SPN): more active than Levofloxacin | MIC50 (S. pneumoniae; SPN CipR (29)): 0.03 | MIC90 (S. pneumoniae; SPN CipR (29)): 0.12 | MIC50 (S. pneumoniae; SPN PenI (103)): 0.015/0.015 | MIC90 (S. pneumoniae; SPN PenI (103)): 0.015/0.015 | MIC50 (S. pneumoniae; SPN PenR (34)): 0.015 | MIC90 (S. pneumoniae; SPN PenR (34)): 0.03 | MIC50 (S. pneumoniae; SPN PenS (519)): 0.015/0.015 | MIC90 (S. pneumoniae; SPN PenS (519)): 0.015/0.015 | MIC50 (S. pneumoniae; SPN-All (656)): 0.015/0.015 | MIC90 (S. pneumoniae; SPN-All (656)): 0.015/0.015 | MIC50 [1, 7]: 4 µg/mL (≈ 10.8 µM) | MIC90 [1, 7]: 4 µg/mL (≈ 10.8 µM) | MIC Range ([1]; Vancomycin-resistant E. faecalis (n = 34)): 0.12 to 8 µg/mL | inhibition (in words) ([1]; Vancomycin-resistant Enterococcus faecalis): effective | inhibition (in words) (H. pylori isolates; H. pylori isolates): effectively inhibited | inhibition compared with other quinolones (in words) (H. pylori isolates; H. pylori isolates): more effective in inhibiting the isolates of H. pylori than Ciprofloxacin, Levofloxacin, and Moxifloxacin, and comparable to Gemifloxacin | MIC50 (H. pylori isolates; [8]): 60 µg/mL (≈ 162 µM) | MIC90 (H. pylori isolates; [8]): 250 µg/mL (≈ 673 µM) | MIC Range [2, 9]: 0.5 to 1 µg/mL | MIC Range [2, 10]: ≦0.03-0.06 μg/mL | MIC Range [2, 11]: 0.5 to 1 µg/mL | inhibition (in words) ([2]; MRSA isolates that are Ciprofloxacin-resistant, Vancomycin-intermediate-resistant, Daptomycin-nonsusceptible): effective | MIC50 [2, 9]: 0.5 µg/mL (≈ 1.35 µM) | MIC90 [2, 9]: 1 µg/mL (≈ 2.69 µM) | MIC50 [2, 10]: ≤ 0.03 µg/mL | MIC90 [2, 10]: ≤ 0.03 µg/mL | MIC50 [2, 11]: 0.5 µg/mL (≈ 1.35 µM) | MIC90 [2, 11]: 1 µg/mL (≈ 2.69 µM) | MIC50 [2, 12]: 0.5 µg/mL (≈ 1.35 µM) | MIC90 [2, 12]: 2 µg/mL (≈ 5.38 µM) | MIC Range [2, 12]: 0.03 to 8 µg/mL | MIC50 ([3]; CA-MRSA (23)): 0.25 | MIC90 ([3]; CA-MRSA (23)): 0.5 | MIC50 ([3]; HA-MRSA (91)): 4/>4 | MIC90 ([3]; HA-MRSA (91)): 4/>4 | activity compared with Levofloxacin (in words) ([3]; MRSA, VISA, VRSA): more active than Levofloxacin | MIC50 ([3]; MSSA (372)): 0.03 | MIC90 ([3]; MSSA (372)): 0.12 | MIC50 ([3]; VISA (12), NARSA isolates): 1 | MIC90 ([3]; VISA (12), NARSA isolates): 2 | median MIC (single value under head MIC50/MIC90) ([3]; VRSA (7), NARSA isolates): 2 | Cmax ([4]; 500 mg q24 p.o.): 5.56 µg/mL | Free AUC0-24/MIC90 ratio at steady state [4, 13]: 259 | Free Cmax/MIC90 ratio at steady state [4, 13]: 37 | Free AUC0-24/MIC90 ratio at steady state [4, 14]: 65 | Free Cmax/MIC90 ratio at steady state [4, 14]: 9 | Free AUC0-24/MIC90 ratio at steady state [4, 15]: 43 | Free Cmax/MIC90 ratio at steady state [4, 15]: 6 | Free AUC0-24/MIC90 ratio at steady state ([4]; 500 mg q24 p.o., MIC90 1 μg/mL): 32 | Free Cmax/MIC90 ratio at steady state ([4]; 500 mg q24 p.o., MIC90 1 μg/mL): 5 | Free AUC0-24/MIC90 ratio at steady state ([4]; 500 mg q24 p.o., MIC90 […]): 130 | Free Cmax/MIC90 ratio at steady state ([4]; 500 mg q24 p.o., MIC90 […]): 19 | Free AUC0-24 ([4]; 500 mg q24 p.o.): 32.4 µg·h/mL | Free Cmax ([4]; 500 mg q24 p.o.): 4.7 µg/mL | Cmax ([4]; 750 mg q24 p.o.): 6.82 µg/mL | Free AUC0-24/MIC90 ratio at steady state [4, 16]: 393 | Free Cmax/MIC90 ratio at steady state [4, 16]: 46 | Free AUC0-24/MIC90 ratio at steady state [4, 17]: 98 | Free Cmax/MIC90 ratio at steady state [4, 17]: 11 | Free AUC0-24/MIC90 ratio at steady state [4, 18]: 65 | Free Cmax/MIC90 ratio at steady state [4, 18]: 8 | Free AUC0-24/MIC90 ratio at steady state ([4]; 750 mg q24 p.o., MIC90 1 μg/mL): 49 | Free Cmax/MIC90 ratio at steady state ([4]; 750 mg q24 p.o., MIC90 1 μg/mL): 6 | Free AUC0-24/MIC90 ratio at steady state ([4]; 750 mg q24 p.o., MIC90 […]): 196 | Free Cmax/MIC90 ratio at steady state ([4]; 750 mg q24 p.o., MIC90 […]): 23 | Free AUC0-24 ([4]; 750 mg q24 p.o.): 49.1 µg·h/mL | Free Cmax ([4]; 750 mg q24 p.o.): 5.7 µg/mL | Cmax ([4]; 1000 mg q24 p.o.): 8.20 µg/mL | Free AUC0-24/MIC90 ratio at steady state [4, 19]: 503 | Free Cmax/MIC90 ratio at steady state [4, 19]: 55 | Free AUC0-24/MIC90 ratio at steady state [4, 20]: 126 | Free Cmax/MIC90 ratio at steady state [4, 20]: 14 | Free AUC0-24/MIC90 ratio at steady state [4, 21]: 84 | Free Cmax/MIC90 ratio at steady state [4, 21]: 9 | Free AUC0-24/MIC90 ratio at steady state [4, 22]: 63 | Free Cmax/MIC90 ratio at steady state [4, 22]: 7 | Free AUC0-24/MIC90 ratio at steady state ([4]; 1000 mg q24 p.o., MIC90 […]): 251 | Free Cmax/MIC90 ratio at steady state ([4]; 1000 mg q24 p.o., MIC90 […]): 28 | Free AUC0-24 ([4]; 1000 mg q24 p.o.): 62.9 µg·h/mL | Free Cmax ([4]; 1000 mg q24 p.o.): 6.9 µg/mL | inhibition (in words) ([5]; Methicillin-resistant, hVISA, VISA, VRSA and quinolone-resistant Vancomycin-susceptible MRSA isolates): effectively inhibited | MIC50 ([5]; MRSA (26)): 0.03 µg/mL (≈ 0.0808 µM) | MIC90 ([5]; MRSA (26)): 0.06 µg/mL (≈ 0.162 µM) | MIC50 ([5]; Quinolone-resistant MRSA (31)): 1 µg/mL (≈ 2.69 µM) | MIC90 ([5]; Quinolone-resistant MRSA (31)): 2 µg/mL (≈ 5.38 µM) | MIC50 [5, 23]: 1 µg/mL | MIC90 [5, 23]: 2 µg/mL | MIC ([5]; read-out: MIC Range, MRSA (26)): 0.016 to 0.06 µg/mL (≈ 0.0431 to 0.162 µM) | MIC ([5]; read-out: MIC Range, Quinolone-resistant MRSA (31)): 0.5 to 4 µg/mL (≈ 1.35 to 10.8 µM) | MIC ([5]; read-out: MIC Range, hVISA(2) + VISA (24) + VRSA (5)): 0.06 to 2 µg/mL | MIC ([5]; read-out: MICs, against these strains): 0.06 to 4 µg/mL (≈ 0.162 to 10.8 µM) | MIC50 (E. faecalis): 0.12 | MIC90 (E. faecalis): 1 | activity compared with Levofloxacin (in words) ([6]; MRSE): more active than Levofloxacin | MIC50 ([6]; MRSE (9)): 2/2 | MIC90 ([6]; MRSE (9)): 2/2 | MIC50 ([6]; MSSE (32)): 0.03 | MIC90 ([6]; MSSE (32)): 0.5
